Assay results taken from US12139481B2, “Compositions comprising macrocycle derivatives incorporating bridged macrocycles and methods of producing and using same” (Southwestern Oklahoma State University, priority 2015, dated 2024).

Experiments:
Type in all cases: cell-based
[1] = tested on: S. mansoni newly transformed schistosomula (NTS); test: In vitro testing on Schistosoma mansoni newly transformed schistosomula (NTS), viability score; conditions: for IC50: NTS, 72 hours post-incubation
Method in brief: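 Mechanically transformed S. mansoni (Liberian strain) NTS, cultured overnight, exposed at 100 per well to compound (from 10 mM DMSO stock; ≤1% DMSO controls) at 37 °C, 5% CO2 for 72 h. Viability scored microscopically from 3 (normal activity, intact tegument) to 0 (dead, granulated).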

[2] = tested on: Plasmodium falciparum D6 clone (Sierra Leon, chloroquine-sensitive); test: In vitro antimalarial assay, chloroquine-sensitive D6 clone; conditions: D6 clone
Method in brief: (§1)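 Parasites grown in type A human RBCs; assay run on infected cell suspension at 2% parasitemia and 2% hematocrit, in duplicate at several concentrations. IC50 taken from dose curves, per the Makler method, with DMSO as vehicle; Vero cytotoxicity run in parallel to derive a selectivity index.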

[3] = tested on: Plasmodium falciparum W2 clone (Indochina, chloroquine-resistant); test: In vitro antimalarial assay, chloroquine-resistant W2 clone; conditions: W2 clone
Method in brief: as §1

[4] = tested on: S. mansoni adult worms; test: In vitro tests on Schistosoma mansoni adult worms, viability score
Protocol: All assays were prepared in compliance with the laboratory SOP described herein above. Female NMRI mice (age 3 weeks, weight ca. 14 g) were purchased from Charles River (Sulzfeld) or Harlan Laboratories (Blackthorn, United Kingdom). The animals were allowed to adapt for 1 week under controlled conditions (22° C., 50% humidity, 12 hours light, and free access to water and rodent diet) before experimental handling. To obtain adult schistosomes, NMRI mice were infected subcutaneously with 80 to 100 cercariae. After 7 to 8 weeks, the mice were euthanized with CO2, and the worms were collected from the hepatic portal and mesenteric veins. Two pairs of adult worms were placed in each well of a 24-well plate with 2 ml culture medium and the test compound. […] Worms were kept in an incubator at 37° C. and 5% CO2 for up to 72 hours. After 72 hours, worm condition was microscopically evaluated using a scale from 3 (normal activity and no tegument alteration) to 0 (dead, completely granulated). Active compounds progressed into IC50 determination. […] For the in vitro drug sensitivity assays, all viability scores were averaged across replicates and normalized to the average viability scores of the control wells (Microsoft Office Excel 2010). […]

[5] = molar IC50 ratio versus chloroquine

SMILES	Effect at 72 h (%) ([1]; NTS S. mansoni at 10 μM)	Effect at 72 h (%) ([1]; NTS S. mansoni, 33 μM)	IC50 [1]	P. falciparum D6 IC50 [2]	IC50 ([2]; converted with molecular weight, read-out: P. falciparum D6 IC50)	X more potent than chloroquine [2, 5]	P. falciparum W2 IC50 [3]	IC50 ([3]; converted with molecular weight, read-out: P. falciparum W2 IC50)	X more potent than chloroquine [3, 5]	Effect at 72 h (%) ([4]; adult S. mansoni at 10 μM, 72 h)	IC50 ([1]; Schistosoma mansoni)	IC50 ([4]; Schistosoma mansoni, adult worms, 72 hours post-exposure, read-out: IC50 [μM] Adults)
CN1CCCN2CCN(CCCN(Cc3ccccc3)CC2)CC1.[Cl-].[Cl-].[Fe+2] [NS12]	100.00%	100.00%	6.69 µM	0.1371 µg/mL	300 nM	0.12	0.1164 µg/mL	255 nM	2.67	2.08%		
O=C(C1CCCCC1)N1CC(=O)N2CCc3ccccc3C2C1 (stereo not drawn) [Praziquantel, reference compound]											2.2 µM	0.1 µM
